From patent US9295190B2, “Seed treatment composition” (DSM IP ASSETS B.V., priority 2011, dated 2016)

How the values were obtained:
[1] = system: Watermelon (Citrullus lanatus) seeds; test: Germination of coated watermelon seeds in cocopeat; type: in vivo
Description: Watermelon (Citrullus lanatus) seeds were untreated or coated with a composition comprising 1.5 gram polyvinylpyrrolidone and 9 gram natamycin product (i.e. Delvocid®, a product comprising 50% (w/w) natamycin) per kg of seed. This composition was applied as described in Example 10.
(§1) Subsequently, the seeds were germinated in trays of sterile, buffered (i.e. with calcium nitrate to pH of 6.7) cocopeat, which is a stable growth medium commonly used and accepted for e.g. simulation of seed germination in the horticultural industry. The 50 seeds planted per treatment were subjected to an ambient temperature of minimally 1.4° C. during night time and maximally 26.9° C. during day time (average temperature 13.6° C.) for 19 days and continuously irrigated to field capacity. The average relative humidity during the trial was 72%. During the trial, the trays with cocopeat were irrigated 3 to 5 times per day. The trays were perforated at the bottom leading to direct removal of excess water. This way, the cocopeat could be kept at field capacity. After 15, 17 and 19 days, the germination percentage was determined according to ISTA standards (see Handbook International Rules for Seed Testing, Edition 2011, Chapter 5, pages 5-32, published by the International Seed Testing Association, Switzerland).

[2] = system: Tomato (Solanum lycopersicum) seeds; test: Germination of drum primed, encrusted tomato seeds; type: in vivo; details: after both 10 and 19 days of incubation
Procedure: as §1
Tomato (Solanum lycopersicum) seeds were primed (i.e. brought to same germination level) using drum priming. Subsequently, the primed tomato seeds were either not treated further or encrusted with composition 6 of Table 1 according to the method as described in Example 1. […] After 10 and 19 days, the germination percentage was determined using the ISTA method described in Example 11.

C[C@@H]1C/C=C/C=C/C=C/C=C/[C@H](O[C@@H]2O[C@H](C)[C@@H](O)[C@H](N)[C@@H]2O)C[C@@H]2O[C@](O)(C[C@@H](O)C[C@H]3O[C@@H]3/C=C/C(=O)O1)C[C@H](O)[C@H]2C(=O)O [natamycin]
Germination percentage in excess of the untreated seeds ([1]; after 15 days of incubation): 18% | Germination percentage in excess of the untreated seeds ([1]; after 17 days of incubation): 34% | Germination percentage in excess of the untreated seeds ([1]; after 19 days of incubation): 38% | Germination percentage in excess of the control seeds [2]: 10%
